Results: patent publication US7208517B1, “Endothelin antagonists” (Abbott Labortories, priority 1994, dated 2007)
Where two headings read alike, the source gives them in different places.

How the values were obtained:
ETA Receptor = target: T1, ETA Receptor (Rattus norvegicus, UniProt P26684); assay: [125I]ET-1 binding to membranes from MMQ cells (ETA receptor binding assay, Table 4); settings: for inhibition at 1 µM: read-out: % Inhibition of ETA at 1 μM
T1 construct: endogenous in cells; host or cells: MMQ rat pituitary cells (membranes)
T1 sequence (P26684 21-426): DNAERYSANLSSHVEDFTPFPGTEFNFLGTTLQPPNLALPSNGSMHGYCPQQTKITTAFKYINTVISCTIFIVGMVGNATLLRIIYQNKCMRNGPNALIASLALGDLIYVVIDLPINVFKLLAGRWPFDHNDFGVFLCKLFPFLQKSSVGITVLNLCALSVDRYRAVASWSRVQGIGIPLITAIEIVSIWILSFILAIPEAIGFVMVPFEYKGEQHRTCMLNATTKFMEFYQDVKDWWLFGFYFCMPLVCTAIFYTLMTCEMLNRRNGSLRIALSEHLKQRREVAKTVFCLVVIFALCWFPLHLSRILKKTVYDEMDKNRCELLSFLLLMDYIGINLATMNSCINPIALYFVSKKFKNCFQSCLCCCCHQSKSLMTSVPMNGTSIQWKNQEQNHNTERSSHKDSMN

[1] = tested on: ET-1-induced phosphatidylinositol hydrolysis in MMQ cells; assay: Determination of ET-1-induced phosphatidylinositol (PI) hydrolysis in MMQ cells; type: cell-based, rat; settings: 1 nM ET-1 challenge, read-out: IC50 (inhibition of ET-induced increase in PI turnover)
Procedure: MMQ cells (0.4×10^6 cells/mL) were labeled with 10 μCi/mL of [^3H]myo-inositol in RPMI for 16 hours. The cells were washed with PBS, then incubated with Buffer A containing protease inhibitors and 10 mM LiCl for 60 minutes. The cells were then incubated with test compounds for 5 minutes, and then challenged with 1 nM ET-1. ET-1 challenge was terminated by the addition of 1.5 mL of 1:2 (v/v) chloroform-methanol. Total inositol phosphates were extracted after adding chloroform and water to give final proportions of 1:1:0.9 (v/v/v) chloroform-methanol-water as described by Berridge (Biochem. J. 206 587–595 (1982)). The upper aqueous phase (1 mL) was retained and a small portion (100 μL) was counted. The rest of the aqueous sample was analyzed by batch chromatography using anion-exchange resin AG1-X8 (Bio-Rad). […] The results of the above study clearly indicate that the compounds act as functional ET antagonists.

[2] = target: T2, ETA receptor in MMQ cells (rET-A) (Rattus norvegicus, UniProt P26684); assay: ETA/ETB selectivity: (125I)ET-1 competition binding, ETA assay in MMQ cell membranes (rET-A)
T2 construct: endogenous in cells; host or cells: MMQ rat pituitary cells (membranes)
T2 sequence (P26684 21-426): T1 sequence (P26684 21-426)
Procedure: (§1) The mixture was centrifuged at 1000×g for 10 min. The supernatant was collected and centrifuged at 60,000×g for 60 min. The precipitate was resuspended in 20 mM Tris, pH 7.4 containing protease inhibitor and centrifuged again. The final membrane pellet was resuspended in 20 mM Tris, pH 7.4 containing protease inhibitors and stored at −80° C. until used. Protein content was determined by the Bio-Rad dye-binding protein assay.
(§2) Binding assays were performed in 96-well microtiter plates pretreated with 0.1% BSA. […] After incubation, unbound ligands were separated from bound ligands by a vacuum filtration method using glass-fiber filter strips in PHD cell harvesters (Cambridge Technology, Inc., MA), washing the filter strips three times with saline (1 mL). Nonspecific binding was determined in the presence of 1 μM ET-1. IC50 values are calculated using an average of at least two separate determinations.

[3] = target: T3, ETB receptors of porcine cerebellar tissues (pET-B) (Sus scrofa, UniProt P35463); assay: ETA/ETB selectivity: (125I)ET-3 competition binding, ETB assay in porcine cerebellum membranes (pET-B)
T3 construct: porcine cerebellar tissues (known to contain ETB receptors); from tissue; host or cells: porcine cerebellum (membranes)
T3 sequence (P35463 27-443): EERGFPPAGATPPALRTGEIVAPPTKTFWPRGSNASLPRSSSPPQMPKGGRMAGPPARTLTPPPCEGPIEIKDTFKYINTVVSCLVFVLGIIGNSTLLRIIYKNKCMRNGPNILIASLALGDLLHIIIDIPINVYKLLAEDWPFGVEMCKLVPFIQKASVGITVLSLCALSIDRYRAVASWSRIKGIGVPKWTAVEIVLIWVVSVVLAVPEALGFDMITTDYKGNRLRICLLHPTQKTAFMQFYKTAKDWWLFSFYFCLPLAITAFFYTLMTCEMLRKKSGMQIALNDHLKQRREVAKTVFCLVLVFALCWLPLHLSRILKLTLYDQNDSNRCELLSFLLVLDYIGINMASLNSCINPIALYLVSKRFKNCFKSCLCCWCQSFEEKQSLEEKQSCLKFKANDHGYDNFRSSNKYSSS
Procedure: as §1, §2

human ETA receptor = target: T4, human ETA receptor (Homo sapiens, UniProt P25101); assay: ETA/ETB selectivity: (125I)ET-1 competition binding, CHO cells transfected with human ETA receptor (hET-A); settings: CHO cells transfected with human ETA receptor; 0.1 nM (125I)ET-1; read-out: hET-A IC50
T4 construct: expressed in transfected cells; host or cells: CHO cells, permanently transfected
T4 sequence (P25101 21-427): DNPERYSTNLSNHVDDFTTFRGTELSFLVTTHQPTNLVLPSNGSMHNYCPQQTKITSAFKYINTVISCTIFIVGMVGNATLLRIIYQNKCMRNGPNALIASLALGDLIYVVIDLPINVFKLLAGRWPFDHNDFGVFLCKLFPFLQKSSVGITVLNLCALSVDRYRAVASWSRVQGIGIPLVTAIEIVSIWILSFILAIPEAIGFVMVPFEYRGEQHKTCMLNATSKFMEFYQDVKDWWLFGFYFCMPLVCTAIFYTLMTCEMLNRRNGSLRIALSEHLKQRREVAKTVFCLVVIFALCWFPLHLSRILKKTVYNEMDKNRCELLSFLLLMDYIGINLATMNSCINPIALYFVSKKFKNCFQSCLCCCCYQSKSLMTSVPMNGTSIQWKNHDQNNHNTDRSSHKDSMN
Procedure: as §1, §2

human ETB receptor = target: T5, human ETB receptor (Homo sapiens, UniProt P24530); assay: ETA/ETB selectivity: (125I)ET-3 competition binding, CHO cells transfected with human ETB receptor (hET-B); settings: CHO cells transfected with human ETB receptor; 0.1 nM (125I)ET-3; read-out: hET-B IC50
T5 construct: expressed in transfected cells; host or cells: CHO cells, permanently transfected
T5 sequence (P24530 27-442): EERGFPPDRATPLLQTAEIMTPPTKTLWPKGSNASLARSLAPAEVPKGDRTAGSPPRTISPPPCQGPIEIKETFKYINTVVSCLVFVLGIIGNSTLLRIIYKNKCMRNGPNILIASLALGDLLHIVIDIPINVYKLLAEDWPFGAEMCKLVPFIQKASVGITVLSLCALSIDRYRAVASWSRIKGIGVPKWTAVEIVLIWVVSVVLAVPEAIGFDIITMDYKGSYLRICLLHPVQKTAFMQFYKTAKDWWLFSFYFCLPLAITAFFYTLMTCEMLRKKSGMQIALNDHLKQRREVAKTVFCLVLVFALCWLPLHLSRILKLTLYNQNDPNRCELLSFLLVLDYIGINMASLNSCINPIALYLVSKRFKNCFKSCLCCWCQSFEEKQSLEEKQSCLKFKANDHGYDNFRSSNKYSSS
Procedure: MMQ cells, porcine cerebellar tissues (known to contain ETB receptors) and chinese hamster ovary cells (CHO) permanently transfected with the human ETA or ETB receptor were homogenized in 25 ml of 10 mM Hepes (pH 7.4) containing 0.25 M sucrose and a protease inhibitor [50 mM EDTA, 0.1 mM PMSF, 5 μg/ml Pepstatin A, and 0.025% Bacitracin] using a micro ultrasonic cell disrupter. The mixture was centrifuged at 1000×g for 10 min. The supernatant was collected and centrifuged at 60,000×g for 60 min. The precipitate was resuspended in 20 mM Tris, pH 7.4 containing protease inhibitor and centrifuged again. The final membrane pellet was resuspended in 20 mM Tris, pH 7.4 containing protease inhibitors and stored at −80° C. until used. Protein content was determined by the Bio-Rad dye-binding protein assay.
Binding assays were performed in 96-well microtiter plates pretreated with 0.1% BSA. Membranes prepared from cells were diluted 100 fold in Buffer B (20 mM Tris, 100 mM NaCl, 10 mM MgCl2, pH 7.4, with 0.2% BSA, 0.1 mM PMSF, 5 μg/mL Pepstatin A, 0.025% bacitracin, and 50 mM EDTA) to a final concentration of 0.2 mg/mL of protein. In competition binding studies, membranes (0.02 mg) were incubated with 0.1 nM of (^125I)ET-1 (for ETA assay in MMQ or CHO cells transfected with human ETA receptor) or (^125I)ET-3 (for ETB assay in porcine cerebellum or CHO cells transfected with human ETB receptor) in Buffer B (final volume: 0.2 mL) in the presence of increasing concentrations of the test compound for 3 hours at 25° C. After incubation, unbound ligands were separated from bound ligands by a vacuum filtration method using glass-fiber filter strips in PHD cell harvesters (Cambridge Technology, Inc., MA), washing the filter strips three times with saline (1 mL). Nonspecific binding was determined in the presence of 1 μM ET-1. IC50 values are calculated using an average of at least two separate determinations.

[4] = test compound at 1 μM, 0.1 nM [125I]ET-1, MMQ cell membranes, 4 hours at 25° C.

| % Inhibition of ETA at 1 μM (ETA Receptor; [4]) | IC50 [1] | SMILES | other results |
| --- | --- | --- | --- |
| 96.4% | 25 nM | CCCNC(=O)CN1CC(c2ccc3c(c2)OCO3)C(C(=O)O)C1c1ccc(OC)cc1 (stereo not drawn) [Example 1D, trans,trans-2-(4-Methoxyphenyl)-4-(1,3-benzodioxol-5-yl)-1-(propylaminocarbonylmethyl)-pyrrolidine-3-carboxylic acid] | – |
| 86.6% | 17 nM | C=CCNC(=O)CN1CC(c2ccc3c(c2)OCO3)C(C(=O)O)C1c1ccc(OC)cc1 (stereo not drawn) [Example 14, trans,trans-2-(4-Methoxyphenyl)-4-(1,3-benzodioxol-5-yl)-1-(allylaminocarbonylmethyl)-pyrrolidine-3-carboxylic acid] | – |
| 84.8% | 10 nM | CCCCNC(=O)CN1CC(c2ccc3c(c2)OCO3)C(C(=O)O)C1c1ccc(OC)cc1 (stereo not drawn) [Example 15, trans,trans-2-(4-Methoxyphenyl)-4-(1,3-benzodioxol-5-yl)-1-(n-butylaminocarbonylmethyl)-pyrrolidine-3-carboxylic acid] | – |
| 96.0% | 9 nM | CCCN(C)C(=O)CN1CC(c2ccc3c(c2)OCO3)C(C(=O)O)C1c1ccc(OC)cc1 (stereo not drawn) [Example 16, trans,trans-2-(4-Methoxyphenyl)-4-(1,3-benzodioxol-5-yl)-1-(N-(n-propyl)-N-methylaminocarbonylmethyl)-pyrrolidine-3-carboxylic acid] | – |
| 97.3% | 9 nM | COc1ccc(C2C(C(=O)O)C(c3ccc4c(c3)OCO4)CN2CC(=O)NCC(C)C)cc1 (stereo not drawn) [Example 18, trans,trans-2-(4-Methoxyphenyl)-4-(1,3-benzodioxol-5-yl)-1-(isobutylaminocarbonylmethyl)-pyrrolidine-3-carboxylic acid] | – |
| 90.3% | 24 nM | COc1ccc(C2C(C(=O)O)C(c3ccc4c(c3)OCO4)CN2CC(=O)NC2CCCC2)cc1 (stereo not drawn) [Example 19, trans,trans-2-(4-Methoxyphenyl)-4-(1,3-benzodioxol-5-yl)-1-(cyclopentylaminocarbonylmethyl)-pyrrolidine-3-carboxylic acid] | – |
| 80.0% | 1 nM | CCCCN(C)C(=O)CN1CC(c2ccc3c(c2)OCO3)C(C(=O)O)C1c1ccc(OC)cc1 (stereo not drawn) [Example 30, trans,trans-2-(4-Methoxyphenyl)-4-(1,3-benzodioxol-5-yl)-1-(N-methyl-N-butylaminocarbonylmethyl)-pyrrolidine-3-carboxylic acid] | – |
| 93.6% | 2 nM | CCCCN(C)C(=O)CN1CC(c2ccc3c(c2)OCO3)C(C(=O)O)C1c1ccc(OC)cc1OCOC (stereo not drawn) [Example 31B, trans,trans-2-(4-Methoxy-2-methoxymethoxyphenyl)-4-(1,3-benzodioxol-5-yl)-1-(N-methyl-N-butylaminocarbonylmethyl)-pyrrolidine-3-carboxylic acid] | – |
| 90.4% | 2 nM | COc1ccc(C2C(C(=O)O)C(c3ccc4c(c3)OCO4)CN2CC(=O)N(C)C2CCCCC2)cc1 (stereo not drawn) [Example 46, trans,trans-2-(4-Methoxyphenyl)-4-(1,3-benzodioxol-5-yl)-1-(N-methyl-N-cyclohexylaminocarbonylmethyl)-pyrrolidine-3-carboxylic acid] | – |
| 95.1% | 0.5 nM | CCCN(CCC)C(=O)CN1CC(c2ccc3c(c2)OCO3)C(C(=O)O)C1c1ccc(OC)cc1 (stereo not drawn) [Example 47, trans,trans-2-(4-Methoxyphenyl)-4-(1,3-benzodioxol-5-yl)-1-(N,N-di(n-propyl)aminocarbonylmethyl)-pyrrolidine-3-carboxylic acid] | – |
| – | – | CCCCN(CCCC)C(=O)CN1CC(c2ccc3c(c2)OCO3)C(C(=O)O)C1CCN1CCCC1=O (stereo not drawn) [compound 512] | inhibition at 1 µM (ETA Receptor; [4]): 98.9%; IC50 [2]: 0.42 nM; IC50 ([3]; porcine cerebellum membranes, 0.1 nM (125I)ET-3, read-out: pET-B IC50): > 80000 nM; IC50 (human ETA receptor): 0.58 nM; IC50 (human ETB receptor): ≥ 60000 nM |
| – | – | CCCCN(CCCC)C(=O)CN1CC(c2ccc3c(c2)OCO3)C(C(=O)O)C1CCc1ccccn1 (stereo not drawn) [compound 519] | inhibition at 1 µM (ETA Receptor): 99.1%; IC50 [2]: 0.38 nM; IC50 [3]: 14000 nM; IC50 (human ETA receptor): 0.23 nM; IC50 (human ETB receptor): 19000 nM |
